Tests used:
Assay in all cases: Post-emergence herbicidal effect, greenhouse pot test
Type in all cases: in vivo
Settings in all cases: 0.32 kg of active substance per hectare, rated visually after about 3 weeks
[1] = tested on: Abutilon theophrasti
Procedure: (§1) Seeds of monocotyledonous and dicotyledonous weed and crop plants are placed in sandy loam in wood-fiber pots, covered with soil and cultivated in a greenhouse under good growth conditions. 2 to 3 weeks after sowing, the test plants are treated at the one-leaf stage. The compounds (I) according to the invention, formulated in the form of wettable powders (WP), are then applied by spraying as aqueous suspension or emulsion at a water application rate of 600 I/ha (converted) with the addition of 0.2% of wetting agent to the green parts of the plants. After the test plants have been kept in the greenhouse under optimum growth conditions for about 3 weeks, the activity of the preparations is rated visually in comparison to untreated controls (herbicidal activity in percent (%): 100% activity=the plants have died, 0% activity=like control plants).

[2] = tested on: Echinochloa crus galli
Procedure: as §1

[3] = tested on: Alopecurus myosuroides
Procedure: as §1

[4] = tested on: Avena fatua
Procedure: as §1

Measured: herbicidal activity

COC(=O)Cc1c(C)nn(-c2cncn2C)c1-c1ccc(Cl)cc1 [Compound 5-1107, methyl [5-(4-chlorophenyl)-3-methyl-1-(1-methyl-1H-imidazol-5-yl)-1H-pyrazol-4-yl]acetate]
≥ 80%: all assays above

From patent publication US20110257014A1, “1-(Heteroaryl)pyrazol-4-ylacetic acids, processes for their preparation and their use as herbicides and plant growth regulators” (BAYER CROPSCIENCE AG, priority 2009, published 2011)
